Source: patent US6437128B1, “Cribrostatins 3-5” (Arizona Board of Regents, priority 2001, dated 2002)
≈ marks a conversion by molar mass, not a printed value.

Key:
HOP-92 = assay: NCI 60-cell screen; assay type: cell-based, human; conditions: Homo sapiens, averaged, quadruplicate, upper limit 10^−5 M, read-out: negative log10 GI50 (converted)
A549/ATCC = assay: NCI 60-cell screen; assay type: cell-based, human; conditions: Homo sapiens, averaged, quadruplicate, upper limit 10^−5 M, read-out: negative log10 GI50 (converted)
[1] = test system: Bacillus subtilis (Presque Isle 620); assay: Antimicrobial disk diffusion; assay type: cell-based; conditions: listed as 5
SF-295 = assay: NCI 60-cell screen; assay type: cell-based, human; conditions: Homo sapiens, averaged, quadruplicate, upper limit 10^−5 M, read-out: negative log10 GI50 (converted)
MDA-MB-435 = assay: NCI 60-cell screen; assay type: cell-based, human; conditions: Homo sapiens, averaged, quadruplicate, upper limit 10^−5 M, read-out: negative log10 GI50 (converted)
SF-268 = assay: NCI 60-cell screen; assay type: cell-based, human; conditions: Homo sapiens, averaged, quadruplicate, upper limit 10^−5 M, read-out: negative log10 GI50 (converted)
MDA-N = assay: NCI 60-cell screen; assay type: cell-based, human; conditions: Homo sapiens, averaged, quadruplicate, upper limit 10^−5 M, read-out: negative log10 GI50 (converted)
MCF7 = assay: NCI 60-cell screen; assay type: cell-based, human; conditions: Homo sapiens, averaged, quadruplicate, upper limit 10^−5 M, read-out: negative log10 GI50 (converted)
[2] = test system: Penicillin-resistant N. gonorrhoeae (clinical isolate); assay: Antimicrobial disk diffusion; assay type: cell-based; conditions: listed as 5
ACHN = assay: NCI 60-cell screen; assay type: cell-based, human; conditions: Homo sapiens, averaged, quadruplicate, upper limit 10^−5 M, read-out: negative log10 GI50 (converted)
K-562 = assay: NCI 60-cell screen; assay type: cell-based, human; conditions: Homo sapiens, K562, averaged, quadruplicate, upper limit 10^−5 M, read-out: negative log10 GI50 (converted)
UACC-62 = assay: NCI 60-cell screen; assay type: cell-based, human; conditions: Homo sapiens, averaged, quadruplicate, upper limit 10^−5 M, read-out: negative log10 GI50 (converted)
MCF7/ADR-RES = assay: NCI 60-cell screen; assay type: cell-based, human; conditions: Homo sapiens, averaged, quadruplicate, upper limit 10^−5 M, read-out: negative log10 GI50 (converted)
[3] = test system: Staphylococcus aureus (ATCC 29213); assay: Antimicrobial disk diffusion; assay type: cell-based
RXF-393 = assay: NCI 60-cell screen; assay type: cell-based, human; conditions: Homo sapiens, averaged, quadruplicate, upper limit 10^−5 M, read-out: negative log10 GI50 (converted)
[4] = test system: Enterococcus faecalis (ATCC 29212); assay: Antimicrobial disk diffusion; assay type: cell-based
KM20L2 (Colon) = assay: ASU-CRI minipanel of human cancer cell lines; assay type: cell-based; conditions: Homo sapiens, KM-20L2, read-out: GI50
From the text: (§1) Individual cell line response values are provided in the Experimental.

SW-1736 (Thyroid ca) = assay: ASU-CRI minipanel of human cancer cell lines; assay type: cell-based; conditions: Thyroid ca SW-1736
From the text: as §1

FADU (Pharynx-sq) = assay: ASU-CRI minipanel of human cancer cell lines; assay type: cell-based
From the text: as §1

SF-295 (CNS) = assay: ASU-CRI minipanel of human cancer cell lines; assay type: cell-based; conditions: Homo sapiens; CNS SF-295; read-out: GI50
From the text: as §1

BXPC-3 (Pancreas-a) = assay: ASU-CRI minipanel of human cancer cell lines; assay type: cell-based; conditions: Homo sapiens; Pancreas-a BXPC-3; read-out: GI50
From the text: as §1

SK-N-SH (Neuroblast) = assay: ASU-CRI minipanel of human cancer cell lines; assay type: cell-based
From the text: as §1

OVCAR-3 (Ovarian) = assay: ASU-CRI minipanel of human cancer cell lines; assay type: cell-based; conditions: Homo sapiens; Ovarian OVCAR-3; read-out: GI50
From the text: as §1

DU-145 (Prostate) = assay: ASU-CRI minipanel of human cancer cell lines; assay type: cell-based; conditions: Homo sapiens; Prostate DU-145; read-out: GI50
From the text: as §1

NCI-H460 (Lung-NSC) = assay: ASU-CRI minipanel of human cancer cell lines; assay type: cell-based; conditions: Homo sapiens, read-out: GI50
From the text: as §1

NCI-H226 = assay: NCI 60-cell screen; assay type: cell-based, human; conditions: Homo sapiens, averaged, quadruplicate, upper limit 10^−5 M, read-out: negative log10 GI50 (converted)
T-47D = assay: NCI 60-cell screen; assay type: cell-based, human; conditions: Homo sapiens, T47D, averaged, quadruplicate, upper limit 10^−5 M, read-out: negative log10 GI50 (converted)
MALME-3M = assay: NCI 60-cell screen; assay type: cell-based, human; conditions: Homo sapiens, averaged, quadruplicate, upper limit 10^−5 M, read-out: negative log10 GI50 (converted)
MOLT-4 = assay: NCI 60-cell screen; assay type: cell-based, human; conditions: Homo sapiens, averaged, quadruplicate, upper limit 10^−5 M, read-out: negative log10 GI50 (converted)
NCI-H460 = assay: NCI 60-cell screen; assay type: cell-based, human; conditions: Homo sapiens, averaged, quadruplicate, upper limit 10^−5 M, read-out: negative log10 GI50 (converted)
IGROV1 = assay: NCI 60-cell screen; assay type: cell-based, human; conditions: Homo sapiens, IGROV-1, averaged, quadruplicate, upper limit 10^−5 M, read-out: negative log10 GI50 (converted)
[5] = test system: Cryptococcus neoformans (ATCC 90112); assay: Antimicrobial disk diffusion; assay type: cell-based
LOX IMVI = assay: NCI 60-cell screen; assay type: cell-based, human; conditions: Homo sapiens, averaged, quadruplicate, upper limit 10^−5 M, read-out: negative log10 GI50 (converted)
786-O = assay: NCI 60-cell screen; assay type: cell-based, human; conditions: Homo sapiens, 786-0, averaged, quadruplicate, upper limit 10^−5 M, read-out: negative log10 GI50 (converted)
[6] = test system: NCI 60-cell in vitro panel; assay: NCI 60-cell in vitro panel, mean panel; assay type: cell-based, human; conditions: Homo sapiens, 60 cell; average ±SEM from the 40 cell lines that yielded GI50 values for both 4a and 5
From the text: as §1

HS578T = assay: NCI 60-cell screen; assay type: cell-based, human; conditions: Homo sapiens, Hs-578T, averaged, quadruplicate, upper limit 10^−5 M, read-out: negative log10 GI50 (converted)
PC-3 = assay: NCI 60-cell screen; assay type: cell-based, human; conditions: Homo sapiens, averaged, quadruplicate, upper limit 10^−5 M, read-out: negative log10 GI50 (converted)
SF-539 = assay: NCI 60-cell screen; assay type: cell-based, human; conditions: Homo sapiens, averaged, quadruplicate, upper limit 10^−5 M, read-out: negative log10 GI50 (converted)
[7] = test system: Candida albicans (ATCC 90028); assay: Antimicrobial disk diffusion; assay type: cell-based
MDA-MB-231/ATCC = assay: NCI 60-cell screen; assay type: cell-based, human; conditions: Homo sapiens, averaged, quadruplicate, upper limit 10^−5 M, read-out: negative log10 GI50 (converted)
OVCAR4 = assay: NCI 60-cell screen; assay type: cell-based, human; conditions: Homo sapiens, OVCAR-4, averaged, quadruplicate, upper limit 10^−5 M, read-out: negative log10 GI50 (converted)
SNB-75 = assay: NCI 60-cell screen; assay type: cell-based, human; conditions: Homo sapiens, averaged, quadruplicate, upper limit 10^−5 M, read-out: negative log10 GI50 (converted)

With `C/C=C(/C)C(=O)OC[C@H]1C2=C(C=C3[C@H]4c5c(O)c(OC)c(C)c(O)c5C(=O)[C@@H](C(=O)N31)N4C)C(=O)C(C)=C(OC)C2=O` [Cribrostatin 4, cribrostatin 4] the GI50 (HOP-92) was 8.13 µM, the GI50 (A549/ATCC) was 8.71 µM and the Minimum inhibitory concentration [1] was 12.5-25 μg/disk. It also gave a GI50 (SF-295) of 8.91 µM, a GI50 (MDA-MB-435) of 1.82 µM and a GI50 (SF-268) of 9.55 µM. The GI50 (MDA-N) was 2.19 µM, the GI50 (MCF7) was 8.13 µM and the Minimum inhibitory concentration [2] was 1.56-3.12 μg/disk. The GI50 (ACHN) was 7.94 µM, the GI50 (K-562) was 4.37 µM and the GI50 (UACC-62) was 9.77 µM. For the same compound, the GI50 (MCF7/ADR-RES) was 6.76 µM, the Minimum inhibitory concentration [3] was “* (No inhibition at 100 μg/disk)” and the GI50 (RXF-393) was 5.25 µM. For the same compound, the Minimum inhibitory concentration [4] was “* (No inhibition at 100 μg/disk)”, the GI50 (KM20L2 (Colon)) was over 10 µg/mL and the GI50 (SW-1736 (Thyroid ca)) was over 10 µg/mL. It also gave a GI50 (FADU (Pharynx-sq)) of 0.26 µg/mL (≈ 0.449 µM), a GI50 (SF-295 (CNS)) of over 10 µg/mL and a GI50 (BXPC-3 (Pancreas-a)) of 5.6 µg/mL (≈ 9.68 µM). It also gave a GI50 (SK-N-SH (Neuroblast)) of 3.6 µg/mL (≈ 6.22 µM), a GI50 (OVCAR-3 (Ovarian)) of 2.2 µg/mL (≈ 3.8 µM) and a GI50 (DU-145 (Prostate)) of over 10 µg/mL. The GI50 (NCI-H460 (Lung-NSC)) was over 10 µg/mL, the GI50 (NCI-H226) was 7.94 µM and the GI50 (T-47D) was 2.09 µM. For the same compound, the GI50 (MALME-3M) was 0.389 µM, the GI50 (MOLT-4) was 1.91 µM and the GI50 (NCI-H460) was 7.59 µM. For the same compound, the GI50 (IGROV1) was 8.51 µM, the Minimum inhibitory concentration [5] was “* (No inhibition at 100 μg/disk)” and the GI50 (LOX IMVI) was 3.31 µM. The GI50 (786-O) was 6.17 µM, the GI50 [6] was 5.01 µM and the GI50 (HS578T) was 8.71 µM. For the same compound, the GI50 (PC-3) was 9.12 µM, the GI50 (SF-539) was 5.75 µM and the Minimum inhibitory concentration [7] was “* (No inhibition at 100 μg/disk)”. It also gave a GI50 (MDA-MB-231/ATCC) of 2.69 µM, a GI50 (OVCAR4) of 1.82 µM and a GI50 (SNB-75) of 5.62 µM.
